Patent US5409946A, “Isoxazole, isothiazole and pyrazole compounds that enhance cognitive function” (Abbott Laboratories, priority 1993, dated 1995)

Key:
[1] = tested on: spike wave discharges; assay: Attenuation of petit mal absence-like spike wave discharges (EEG); assay type: in vivo, male Wistar rats; conditions: for effect on incidence of spike wave discharges: i.p., 20 min waking immobility, p<0.05 where significant; for Total spike wave duration: 5.0 μmol/kg i.p.
Experimental: Animals: Male albino rats of the Wistar strain (CAMM Research) were maintained on a 12:12 hour light-dark cycle and individually housed throughout these experiments. They were fed standard rodent diet with food and water provided ad libitum.
EEG Recordings: To record spike wave discharges, rats were surgically implanted with permanently affixed EEG electrodes over the frontal codex using previously described techniques (Radek, Brain Res., 1993, in press). After at least a ten day recovery from this surgery, EEG recordings were made inside darkened sound attenuating chambers. Rats were allowed to move freely within the chambers and computerized activity monitors recorded animal motion during these studies. Only those rats that express spike wave discharges, as identified from preliminary recordings, were used to test the effects of nicotinic agents.
Drug studies: EEG recordings were obtained from each rat for a period of 20 minutes of total waking immobility immediately after administration of drug, or a drug-free control solution. Immobility was characterized as the absence of infrared beam interruptions from the activity monitor system. Spike wave activity was identified as regular 6-10 Hz complexes with amplitudes of 0.4 to 1.0 mV. The total spindling duration for 20 minutes of waking immobility was calculated by determining the length (in seconds) of each spike wave burst, and adding each of these times together to obtain a total spindle time for the recording session. Each rat was administered the control solution and one or two doses of the test compounds and each dosing was given at least 48 hours after the previous treatment.
The compound of Example 2 was dissolved in saline to the desired concentration.

[2] = tested on: ethanol-induced narcosis; conditions: literature knowledge; cited from earlier work
[3] = tested on: neuronal nicotinic cholinergic channels in PC12 cells; assay: Cholinergic channel activator action in PC12 cells, whole-cell patch-clamp; assay type: cell-based, rat; conditions: 10 μM antagonist; Example 2 300 μM; N=3
Experimental: Electrophysiologic recordings were obtained from differentiated (neurite-bearing) cells after 4-7 days exposure to NGF. […] After 20 minutes, differentiating medium was added (DMEM containing 100 ng/ml nerve growth factor, 5% heat-inactivated fetal calf serum and 2.5% heat-inactivated horse serum) and the cells were refed with this medium every 3 days.
The intracellular (recording pipette) solution consisted of 140 mM KCl, 1.0 mM CaCl2, 2.0 mM MgCl2, 11 mM K-EGTA, and 10 mM K-HEPES buffer (7.3 pH, 315 mOsm). Osmolarities were adjusted using dextrose such that the extracellular solution was 10 mOsm hypertonic compared to the intracellular solution. Voltage-gated inward (sodium) and outward (potassium) currents were monitored throughout the experiment to determine establishment and maintenance of the whole-cell recording configuration.

[4] = tested on: resting cortical perfusion in the parietotemporal cortex; conditions: humans; cited from earlier work
[5] = cited from earlier work
[6] = tested on: nicotinic receptors; conditions: chronic administration, without affecting affinity; cited from earlier work
[7] = tested on: signs and symptoms of nicotine withdrawal; conditions: double-blind studies; cited from earlier work
[8] = tested on: cognitive function; conditions: acutely and chronically administered; cited from earlier work

Compound: CN1C(=O)CN=C(c2ccccc2)c2cc(Cl)ccc21 [Diazepam, diazepam]
- effect on incidence of spike wave discharges [1]: significantly lowered these discharges
- effect on ethanol sleep time (known) [2]: potentiate the effect of ethanol by increasing the sleep time

Compound: CNC1(C)C2CCC(C2)C1(C)C (centres unmarked) [Mecamylamine, mecamylamine]
- inhibition of the response to Example 2 [3]: 81±3%
- Total spike wave duration ([1]; Table 10): 45.7 ± 15.0 s
- Total spike wave duration ([1]; Table 11): 46.8 ± 6.4 s
- effect on incidence of spike wave discharges [1]: did not affect the incidence of spike/wave discharges
- blockade of agonist-induced lowering of spike wave discharges ([1]; mecamylamine with (-)-nicotine or Example 2): blocked the effects of both (-)-nicotine and the compound of Example 2
- effect on resting cortical perfusion [4]: reduces resting cortical perfusion in the parietotemporal cortex of humans

Compound: CN1CCCC1c1cccnc1 (centres unmarked) [nicotine]
- pharmacokinetics ([5]; in vivo): unfavorable pharmacokinetics
- oral bioavailability ([5]; oral): poor oral bioavailability
- up-regulation of number of receptors [6]: 50-100%
- suppression of withdrawal signs and symptoms versus placebo [7]: far superior to a placebo
- effect on cognitive function [8]: enhances cognitive function in rats

Compound: CCCC(C)C1(CC)C(=O)NC(=O)NC1=O (centres unmarked) [pentobarbital]
- effect on ethanol sleep time (known) [2]: potentiate the effect of ethanol by increasing the sleep time
